Assays:
[1] = target: Vascular endothelial growth factor receptor 1 (Homo sapiens, UniProt P17948)
[2] = target: Mast/stem cell growth factor receptor Kit (Homo sapiens, UniProt P10721)
[3] = target: Vascular endothelial growth factor receptor 2 (Homo sapiens, UniProt P35968)
[4] = target: Cytochrome P450 3A4 (Homo sapiens, UniProt P08684); test: Inhibition of CYP3A4 in human liver microsome; type: ADME
[5] = target: Angiopoietin-1 receptor (Homo sapiens, UniProt Q02763); test: Inhibition of Tie2 at 1 mM ATP by HTRF assay

Vascular endothelial growth factor receptor 2, sequence (P35968 whole entry): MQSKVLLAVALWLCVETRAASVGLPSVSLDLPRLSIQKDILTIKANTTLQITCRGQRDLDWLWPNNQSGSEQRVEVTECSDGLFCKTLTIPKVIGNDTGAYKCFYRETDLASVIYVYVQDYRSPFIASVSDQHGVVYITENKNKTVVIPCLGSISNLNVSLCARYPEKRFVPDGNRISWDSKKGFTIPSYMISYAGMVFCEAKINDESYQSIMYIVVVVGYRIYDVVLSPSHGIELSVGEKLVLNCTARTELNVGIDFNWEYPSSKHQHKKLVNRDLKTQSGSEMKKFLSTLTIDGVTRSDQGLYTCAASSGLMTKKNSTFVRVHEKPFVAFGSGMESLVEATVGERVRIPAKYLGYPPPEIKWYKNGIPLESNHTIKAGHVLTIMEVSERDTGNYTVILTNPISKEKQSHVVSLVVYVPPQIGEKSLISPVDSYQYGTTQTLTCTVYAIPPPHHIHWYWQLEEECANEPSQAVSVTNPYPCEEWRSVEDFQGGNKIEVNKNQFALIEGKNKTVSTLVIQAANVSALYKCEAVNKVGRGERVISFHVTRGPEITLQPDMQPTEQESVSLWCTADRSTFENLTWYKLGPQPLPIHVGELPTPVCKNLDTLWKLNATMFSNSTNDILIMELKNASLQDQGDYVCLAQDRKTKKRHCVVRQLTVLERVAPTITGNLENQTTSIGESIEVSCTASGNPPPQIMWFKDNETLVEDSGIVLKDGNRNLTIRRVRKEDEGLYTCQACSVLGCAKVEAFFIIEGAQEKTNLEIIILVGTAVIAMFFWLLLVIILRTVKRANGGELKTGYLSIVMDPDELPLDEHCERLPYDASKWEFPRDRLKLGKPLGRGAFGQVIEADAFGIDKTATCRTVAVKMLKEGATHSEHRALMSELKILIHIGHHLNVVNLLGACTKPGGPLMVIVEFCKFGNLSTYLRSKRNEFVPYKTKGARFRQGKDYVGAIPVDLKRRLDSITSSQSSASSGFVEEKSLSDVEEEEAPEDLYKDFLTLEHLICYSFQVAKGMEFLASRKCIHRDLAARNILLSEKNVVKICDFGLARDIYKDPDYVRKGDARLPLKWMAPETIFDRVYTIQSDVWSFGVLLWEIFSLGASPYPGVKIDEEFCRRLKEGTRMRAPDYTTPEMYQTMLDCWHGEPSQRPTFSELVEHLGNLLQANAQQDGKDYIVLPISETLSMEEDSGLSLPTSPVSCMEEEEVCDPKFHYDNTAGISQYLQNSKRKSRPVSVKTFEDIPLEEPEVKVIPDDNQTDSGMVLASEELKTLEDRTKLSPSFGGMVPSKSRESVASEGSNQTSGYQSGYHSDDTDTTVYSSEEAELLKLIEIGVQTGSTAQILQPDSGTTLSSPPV
Vascular endothelial growth factor receptor 1, sequence (P17948 whole entry): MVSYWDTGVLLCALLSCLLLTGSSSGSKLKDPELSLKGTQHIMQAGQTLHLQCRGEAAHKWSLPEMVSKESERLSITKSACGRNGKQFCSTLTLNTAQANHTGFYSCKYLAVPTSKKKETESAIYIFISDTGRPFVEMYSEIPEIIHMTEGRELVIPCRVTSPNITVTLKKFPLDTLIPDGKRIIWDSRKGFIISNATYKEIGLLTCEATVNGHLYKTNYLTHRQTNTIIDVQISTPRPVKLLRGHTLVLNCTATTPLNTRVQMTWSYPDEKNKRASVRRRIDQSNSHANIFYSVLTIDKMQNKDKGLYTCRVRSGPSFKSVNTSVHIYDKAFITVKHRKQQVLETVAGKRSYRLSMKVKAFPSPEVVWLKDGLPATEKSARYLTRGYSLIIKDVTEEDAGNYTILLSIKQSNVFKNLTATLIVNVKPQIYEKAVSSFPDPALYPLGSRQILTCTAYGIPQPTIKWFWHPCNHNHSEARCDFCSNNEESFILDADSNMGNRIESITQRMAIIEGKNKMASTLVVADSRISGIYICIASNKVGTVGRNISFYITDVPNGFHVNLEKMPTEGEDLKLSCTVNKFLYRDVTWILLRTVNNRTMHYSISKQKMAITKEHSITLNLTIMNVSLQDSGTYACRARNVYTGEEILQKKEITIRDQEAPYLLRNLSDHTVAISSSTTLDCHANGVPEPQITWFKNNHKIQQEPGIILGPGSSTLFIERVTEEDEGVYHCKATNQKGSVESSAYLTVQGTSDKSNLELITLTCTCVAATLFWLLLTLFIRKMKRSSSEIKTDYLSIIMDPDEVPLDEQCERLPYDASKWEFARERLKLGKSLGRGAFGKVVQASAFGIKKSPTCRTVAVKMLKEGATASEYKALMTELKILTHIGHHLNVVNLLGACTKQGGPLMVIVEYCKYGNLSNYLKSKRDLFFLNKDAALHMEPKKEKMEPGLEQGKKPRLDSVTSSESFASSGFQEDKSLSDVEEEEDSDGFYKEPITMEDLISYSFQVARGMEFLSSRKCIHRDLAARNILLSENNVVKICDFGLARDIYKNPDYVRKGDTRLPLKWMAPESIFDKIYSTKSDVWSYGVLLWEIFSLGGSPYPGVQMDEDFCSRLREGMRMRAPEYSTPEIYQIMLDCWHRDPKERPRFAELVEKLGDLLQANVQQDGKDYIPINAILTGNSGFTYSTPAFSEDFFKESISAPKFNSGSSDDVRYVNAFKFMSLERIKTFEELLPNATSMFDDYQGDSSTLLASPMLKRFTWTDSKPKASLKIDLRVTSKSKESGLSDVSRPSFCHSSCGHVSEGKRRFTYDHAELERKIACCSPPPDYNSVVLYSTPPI
Mast/stem cell growth factor receptor Kit, sequence (P10721 whole entry): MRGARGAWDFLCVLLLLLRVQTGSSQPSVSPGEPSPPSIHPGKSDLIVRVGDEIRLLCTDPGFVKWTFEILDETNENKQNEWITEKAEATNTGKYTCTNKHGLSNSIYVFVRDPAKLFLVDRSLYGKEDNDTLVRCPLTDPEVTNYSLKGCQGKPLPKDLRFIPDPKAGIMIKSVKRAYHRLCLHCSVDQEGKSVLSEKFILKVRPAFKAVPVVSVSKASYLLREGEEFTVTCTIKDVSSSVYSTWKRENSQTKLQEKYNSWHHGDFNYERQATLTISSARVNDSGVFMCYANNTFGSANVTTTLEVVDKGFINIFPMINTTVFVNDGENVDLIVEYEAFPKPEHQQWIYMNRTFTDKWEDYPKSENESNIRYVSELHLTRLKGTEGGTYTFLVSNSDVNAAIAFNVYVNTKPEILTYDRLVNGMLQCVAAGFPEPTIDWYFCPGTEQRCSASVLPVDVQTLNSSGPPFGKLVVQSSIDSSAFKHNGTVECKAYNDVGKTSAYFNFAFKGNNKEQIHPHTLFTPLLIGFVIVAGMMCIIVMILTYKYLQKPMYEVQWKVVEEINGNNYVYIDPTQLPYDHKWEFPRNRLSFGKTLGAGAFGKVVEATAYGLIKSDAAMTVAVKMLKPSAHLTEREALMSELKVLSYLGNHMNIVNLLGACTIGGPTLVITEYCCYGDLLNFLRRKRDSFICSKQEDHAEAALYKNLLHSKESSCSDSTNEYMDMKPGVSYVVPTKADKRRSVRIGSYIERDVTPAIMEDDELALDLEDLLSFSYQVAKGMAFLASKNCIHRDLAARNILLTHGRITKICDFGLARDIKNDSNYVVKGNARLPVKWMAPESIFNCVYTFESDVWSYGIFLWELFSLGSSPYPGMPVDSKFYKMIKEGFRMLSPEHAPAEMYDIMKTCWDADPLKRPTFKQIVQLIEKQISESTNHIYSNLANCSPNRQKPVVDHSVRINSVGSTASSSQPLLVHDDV
Cytochrome P450 3A4, sequence (P08684 whole entry): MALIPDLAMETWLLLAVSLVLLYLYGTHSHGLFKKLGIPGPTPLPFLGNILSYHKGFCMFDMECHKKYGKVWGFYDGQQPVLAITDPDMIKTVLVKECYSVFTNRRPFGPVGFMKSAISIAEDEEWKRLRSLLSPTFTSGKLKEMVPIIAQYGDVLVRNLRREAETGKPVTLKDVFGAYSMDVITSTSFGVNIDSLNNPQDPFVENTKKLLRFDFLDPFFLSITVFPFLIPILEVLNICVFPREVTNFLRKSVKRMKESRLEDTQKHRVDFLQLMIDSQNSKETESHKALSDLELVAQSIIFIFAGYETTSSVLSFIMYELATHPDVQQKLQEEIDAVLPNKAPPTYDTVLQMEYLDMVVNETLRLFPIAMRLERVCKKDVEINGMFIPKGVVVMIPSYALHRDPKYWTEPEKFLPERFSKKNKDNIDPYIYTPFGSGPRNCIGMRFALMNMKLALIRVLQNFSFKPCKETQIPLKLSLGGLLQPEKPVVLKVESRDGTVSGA

Structure (SMILES)	IC50 [1] [nM]	IC50 [2] [nM]	IC50 [3] [nM]	IC50 [4] [nM]	IC50 [5] [nM]
CN1CCN(Cc2ccc3c(c2)-c2n[nH]c(-c4ccc(CN(C)C(=O)Nc5ccc(Br)cc5)s4)c2C3)CC1	38	17			
Cc1ccc(NC(=O)NCc2ccc(-c3[nH]nc4c3Cc3cc(CN5CCN(C)CC5)ccc3-4)s2)cc1	11500	24			
Cc1cccc(NC(=O)N(Cc2ccc(-c3[nH]nc4c3Cc3cc(CN5CCN(C)CC5)ccc3-4)s2)C2CC2)c1	38	136			
CN1CCN(Cc2ccc3c(c2)-c2n[nH]c(-c4ccc(CN(C)C(=O)Nc5ccc(F)cc5)s4)c2C3)CC1	83	59			
CN1CCN(Cc2ccc3c(c2)Cc2c-3n[nH]c2-c2ccc(CN(C)C(=O)Nc3cc(F)cc(C(F)(F)F)c3)s2)CC1	33	25			
c1cn(Cc2ccc3c(c2)-c2[nH]nc(-c4ccsc4)c2C3)cn1			147	254	
Cc1cccc(NC(=O)N(Cc2ccc(-c3[nH]nc4c3Cc3cc(CN5CCN(C)CC5)ccc3-4)s2)CC(C)C)c1	1590	17200			
CN1CCN(Cc2ccc3c(c2)Cc2c-3n[nH]c2-c2ccc(CNC(=O)Nc3ccccc3C(F)(F)F)s2)CC1	> 50000	23800			
CN1CCN(Cc2ccc3c(c2)Cc2c-3n[nH]c2-c2ccc(CN(C)C(=O)Nc3ccccc3Cl)s2)CC1	3840	> 50000			
CON(Cc1ccc(-c2[nH]nc3c2Cc2cc(CN4CCN(C)CC4)ccc2-3)s1)C(=O)Nc1cccc(C)c1	1350	237			
CN1CCN(Cc2ccc3c(c2)-c2n[nH]c(-c4ccc(CN(C)C(=O)Nc5ccc(Cl)cc5)s4)c2C3)CC1	64	36			
COCCN(Cc1ccc(-c2[nH]nc3c2Cc2cc(CN4CCN(C)CC4)ccc2-3)s1)C(=O)Nc1cccc(C)c1	2260	> 50000			
CN1CCN(Cc2ccc3c(c2)Cc2c-3n[nH]c2-c2ccc(CN(C)C(=O)Nc3cccc(OC(F)(F)F)c3)s2)CC1	19	56			
Cc1cccc(NC(=O)N(Cc2ccc(-c3[nH]nc4c3Cc3cc(CN5CCN(C)CC5)ccc3-4)s2)C(C)C)c1	2820	9750			
CN1CCN(Cc2ccc3c(c2)Cc2c(-c4ccc(CNC(=O)Nc5ccc(C(F)(F)F)cc5)s4)n[nH]c2-3)CC1	4200	13			
Cc1cccc(NC(=O)N(C)Cc2ccc(-c3n[nH]c4c3Cc3ccc(CN5CCN(C)CC5)cc3-4)s2)c1	44	96			
Cc1cccc(NC(=O)NCc2ccc(-c3n[nH]c4c3Cc3cc(CN5CCN(C)CC5)ccc3-4)s2)c1	2900	86			
Cc1cccc(NC(=O)N(C)Cc2ccc(-c3[nH]nc4c3Cc3cc(CN5CCN(C)CC5)ccc3-4)s2)c1	4720	14700			
Cc1ccccc1NC(=O)NCc1ccc(-c2[nH]nc3c2Cc2ccc(CN4CCN(C)CC4)cc2-3)s1	2060	674			
CN1CCN(Cc2ccc3c(c2)Cc2c(-c4ccc(CNC(=O)Nc5ccccc5Cl)s4)n[nH]c2-3)CC1		921			

Structure (SMILES)	IC50 [1] [nM]	IC50 [2] [nM]	IC50 [3] [nM]	IC50 [4] [nM]	IC50 [5] [nM]
Cc1cccc(NC(=O)N(CCC(C)C)Cc2ccc(-c3[nH]nc4c3Cc3cc(CN5CCN(C)CC5)ccc3-4)s2)c1	3620	4840			
CN1CCN(Cc2ccc3c(c2)Cc2c(-c4ccc(CNC(=O)Nc5cc(Cl)cc(Cl)c5)s4)n[nH]c2-3)CC1	2280	38			
Cc1ccc(NC(=O)NCc2ccc(-c3n[nH]c4c3Cc3ccc(CN5CCN(C)CC5)cc3-4)s2)cc1	613	27			
CN1CCN(Cc2ccc3c(c2)-c2n[nH]c(-c4ccc(CN(C)C(=O)Nc5cccc(Cl)c5)s4)c2C3)CC1	20	38			
CN1CCN(Cc2ccc3c(c2)-c2[nH]nc(-c4ccc(CNC(=O)Nc5ccccc5)s4)c2C3)CC1	3780	101			
CN1CCN(Cc2ccc3c(c2)-c2n[nH]c(-c4ccc(CN(C)C(=O)Nc5ccc(OC(F)(F)F)cc5)s4)c2C3)CC1	25	19			
CCN(Cc1ccc(-c2[nH]nc3c2Cc2cc(CN4CCN(C)CC4)ccc2-3)s1)C(=O)Nc1cccc(C)c1	131	2190			
CN1CCN(Cc2ccc3c(c2)-c2n[nH]c(-c4ccc(CN(C)C(=O)Nc5ccc(Cl)c(Cl)c5)s4)c2C3)CC1	36	28			
Cc1cccc(N(C)C(=O)NCc2ccc(-c3[nH]nc4c3Cc3cc(CN5CCN(C)CC5)ccc3-4)s2)c1	14600	139			
Cc1cccc(N/C(=N/Cc2ccc(-c3n[nH]c4c3Cc3cc(CN5CCN(C)CC5)ccc3-4)s2)NC#N)c1			> 50000		
Cc1cccc(N(C)C(=O)N(C)Cc2ccc(-c3[nH]nc4c3Cc3cc(CN5CCN(C)CC5)ccc3-4)s2)c1	27900	26800			
Cc1cc(C)cc(NC(=O)NCc2ccc(-c3n[nH]c4c3Cc3cc(CN5CCN(C)CC5)ccc3-4)s2)c1	1670	27			
Cc1ccccc1NC(=O)NCc1ccc(-c2[nH]nc3c2Cc2cc(CN4CCN(C)CC4)ccc2-3)s1	25000	1390			
CN1CCN(Cc2ccc3c(c2)Cc2c-3n[nH]c2-c2ccc(CNC(=O)Nc3cccc(C(F)(F)F)c3)s2)CC1	863	17			
CN1CCN(Cc2ccc3c(c2)Cc2c-3n[nH]c2-c2csc(CNS(=O)(=O)Cc3ccccc3)c2)CC1			> 50000		
CN1CCN(Cc2ccc3c(c2)-c2[nH]nc(-c4ccsc4)c2C3)CC1				> 10000	
Cc1cccc(NC(=O)NCc2ccc(-c3n[nH]c4c3Cc3ccc(CN5CCN(C)CC5)cc3-4)s2)c1	592	69			
Cc1ccc2nc(NCc3ccc(-c4[nH]nc5c4Cc4cc(CN6CCN(C)CC6)ccc4-5)s3)[nH]c2c1			> 50000		
CN1CCN(Cc2ccc3c(c2)-c2n[nH]c(-c4ccc(CN(C)C(=O)Nc5cccc(C(F)(F)F)c5)s4)c2C3)CC1	14	18			259
CCCN(Cc1ccc(-c2[nH]nc3c2Cc2cc(CN4CCN(C)CC4)ccc2-3)s1)C(=O)Nc1cccc(C)c1	59	75			
